# How the values were obtained:
# Assay type in all cases: functional
# Bacteroides fragilis = assay: In vitro antibacterial activity against Bacteroides fragilis 2017.
# Clostridium perfringens = assay: In vitro antibacterial activity against Clostridium perfringens 615.
# Escherichia coli [1] = assay: In vitro antibacterial activity against Escherichia coli 1850 WT.
# Escherichia coli [2] = assay: In vitro antibacterial activity against Escherichia coli 1919 PM.
# Pseudomonas aeruginosa [3] = assay: In vitro antibacterial activity against Pseudomonas aeruginosa 2032 WT.
# Pseudomonas aeruginosa [4] = assay: In vitro antibacterial activity against Pseudomonas aeruginosa P. aeruginosa 1911.
# Streptococcus pneumoniae = assay: In vitro antibacterial activity against Streptococcus pneumoniae 3512.
# Staphylococcus aureus = assay: In vitro antibacterial activity against Staphylococcus aureus 853.
Structure (SMILES),MIC (Bacteroides fragilis) [µg/mL],MIC (Clostridium perfringens) [µg/mL],MIC (Escherichia coli [1]) [µg/mL],MIC (Escherichia coli [2]) [µg/mL],MIC (Pseudomonas aeruginosa [3]) [µg/mL],MIC (Pseudomonas aeruginosa [4]) [µg/mL],MIC (Streptococcus pneumoniae) [µg/mL],MIC (Staphylococcus aureus) [µg/mL]
CCNC(=O)N(C)[C@H]1CCC[C@H]2C1=C(C(=O)[O-])N1C(=O)[C@H]([C@@H](C)O)[C@@H]21.[Na+],0.5,< 0.12,2,0.25,4,16,< 0.12,0.25
CO[C@H]1CCC[C@H]2C1=C(C(=O)[O-])N1C(=O)[C@H]([C@@H](C)O)[C@@H]21.[Na+] [SANFETRINEM SODIUM],0.06,0.03,0.5,0.5,16,> 32,< 0.01,0.25
C[C@@H](O)[C@H]1C(=O)N2C(C(=O)[O-])=C3[C@H](CCC[C@@H]3N(C)C(=O)NCCO)[C@H]12.[Na+],0.25,< 0.12,0.5,< 0.12,8,16,< 0.12,0.25
C[C@@H](O)[C@H]1C(=O)N2C(C(=O)[O-])=C3[C@H](CCC[C@@H]3N(C)C(N)=O)[C@H]12.[Na+],< 0.12,< 0.12,0.25,< 0.12,1,8,< 0.12,< 0.12
C[C@@H](O)[C@H]1C(=O)N2C(C(=O)O)=C(SCCNC=N)C[C@H]12 [IMIPENEM ANHYDROUS],0.06,0.03,0.5,0.5,4,4,< 0.01,0.1
C[C@@H](O)[C@H]1C(=O)N2C(C(=O)[O-])=C3[C@H](CCC[C@@H]3N(C)C(=O)NC(C)(C)C)[C@H]12.[Na+],0.5,< 0.12,4,0.5,2,16,< 0.12,0.5

# Source: ChEMBL document CHEMBL1128935, “Synthesis and antibacterial, activity of 4-ureido trinems” (1996)
